In ChEMBL document CHEMBL3046337, “Activity landscape analysis, CoMFA and CoMSIA studies of pyrazole CB1 antagonists” (Med Chem Res, 2013):

Target: Cannabinoid receptor 1 (Homo sapiens, UniProt P21554)
Assay: Antagonist activity at CB1 receptor (unknown origin)

Cannabinoid receptor 1, sequence (P21554 whole entry): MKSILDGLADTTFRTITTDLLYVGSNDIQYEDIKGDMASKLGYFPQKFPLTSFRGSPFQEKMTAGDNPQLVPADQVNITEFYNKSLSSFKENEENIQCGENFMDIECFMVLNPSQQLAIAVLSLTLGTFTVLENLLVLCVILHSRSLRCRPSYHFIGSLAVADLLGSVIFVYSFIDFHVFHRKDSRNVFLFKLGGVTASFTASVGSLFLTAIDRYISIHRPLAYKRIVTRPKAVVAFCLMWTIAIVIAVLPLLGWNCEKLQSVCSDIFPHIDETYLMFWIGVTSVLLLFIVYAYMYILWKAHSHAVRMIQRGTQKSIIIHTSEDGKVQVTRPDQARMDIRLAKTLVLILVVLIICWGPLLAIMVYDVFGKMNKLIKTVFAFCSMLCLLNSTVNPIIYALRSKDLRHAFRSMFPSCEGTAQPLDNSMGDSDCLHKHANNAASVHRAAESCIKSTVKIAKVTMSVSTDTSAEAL

Compound	Ki
COc1ccc(-c2c(F)c(C(=O)NN3CCCCC3)nn2-c2ccc(Cl)cc2Cl)cc1	0.0182 µM
Cc1c(C(=O)NN)nn(-c2ccc(Cl)cc2Cl)c1-c1ccc(Cl)cc1	0.374 µM
Cc1c(C(=O)NN2CCOCC2)nn(-c2ccc(Cl)cc2Cl)c1-c1ccc(I)cc1	0.0132 µM
Cc1c(NC(=O)N2CCCCC2)nn(-c2ccc(Cl)cc2Cl)c1-c1ccc(Br)cc1	0.047 µM
CCCCCn1nc(C(=O)NN2CCCCC2)cc1-c1ccccc1	0.256 µM
Cc1c(C(=O)NCCO)nn(-c2ccc(Cl)cc2Cl)c1-c1ccc(Br)cc1	1.12 µM
Cc1c(C(=O)NN2CCCCC2)nn(-c2ccc(Cl)cc2Cl)c1-c1ccc(N)cc1	0.0815 µM
Cc1c(C(=O)NN2CCOCC2)nn(-c2ccc(Cl)cc2Cl)c1-c1ccccc1Br	0.0117 µM
CCCCCn1nc(C(=O)NN2CCCCC2)c(C)c1-c1ccc(Br)cc1	0.0818 µM
O=C(NC1CCCCC1)c1nn(-c2ccc(Cl)cc2Cl)c(-c2ccc(Br)cc2)c1CO	0.006 µM
CCCCCCCn1nc(C(=O)NN2CCCCC2)c(C)c1-c1ccccc1	0.203 µM
CCCn1nc(C(=O)NN2CCCCC2)c(C)c1-c1ccccc1	3.56 µM
Cc1c(C(=O)Nc2ccc(-c3ccsc3)cc2)nn(CCCCCCl)c1-c1ccccc1	0.0198 µM
Cc1ccc(Cn2nc(C(=O)NC3CC4CCC3(C)C4(C)C)c(C)c2-c2ccc(Cl)c(C)c2)cc1 (stereo not drawn)	0.4 µM
Cc1c(C(=O)NCC23CC4CC(CC(C4)C2)C3)nn(CCCCCCl)c1-c1ccccc1	0.006 µM
O=C(NN1CCCCC1)c1nn(-c2ccc(Cl)cc2Cl)c2c1CCCc1c-2cccc1[N+](=O)[O-]	0.1 µM
Cc1c(C(=O)NN2CCCCC2)nn(-c2ccc(Cl)cc2Cl)c1-c1ccc(Br)cc1	0.0767 µM
Cc1c(C(=O)NN2CCCCC2)nn(C)c1-c1ccc(Cl)cc1	34.7 µM
O=C(NN1CCCCC1)c1nn(-c2ccc(Cl)cc2Cl)c2c1CCCc1cc([N+](=O)[O-])ccc1-2	0.063 µM
COCc1c(C(=O)NC2CCCCC2)nn(-c2ccc(Cl)cc2Cl)c1C1C2(C)CCC(C2)C1(C)C (stereo not drawn)	0.241 µM
Cc1c(C(=O)NN2CCCCC2)nn(C2CCCCC2)c1-c1ccccc1	0.605 µM
Cc1c(C(=O)N(C)c2ccccc2)nn(-c2ccc(Cl)cc2Cl)c1-c1ccc(Br)cc1	0.0311 µM
CCCCCCCn1nc(C(=O)NN2CCCCC2)cc1-c1ccccc1	0.327 µM
